# In the pKa sets of Baltruschat and Czodrowski (2020):
# Conditions: basic group
row,pKa,Structure (SMILES)
1,8.6,CCNC(=O)C1CCCCN1 (configuration not stated)
2,11.9,CCN(CC)CC(=N\[O-])/C(C)=N/O
3,9.35,COc1ccc(/N=C/N(C)C)cc1
4,6.55,Cc1nc2ccccc2n1C
5,5,Nc1ccc2[nH]c(=O)[nH]c2c1
6,9.28,CC(=O)NCCN
7,6.6,CCCCCCCCCCN(CC(O)CC)CC(O)CC (configuration not stated)
8,9.41,Cc1ccc(CNCCN)cc1
9,10.6,CCCCCCNCCC(=O)[O-]
10,8.2,C#CC(C)(C)NC(C)(C)C=C
11,1.2,CN([NH3+])C(N)=S
12,5.32,O=C([O-])c1ccccn1
13,10.7,NCCCCCCC#CC#CCCC(=O)[O-]
14,11.6,CCN(CC)Cc1cc(Cl)cc(Cl)c1[O-]
15,11.6,CCN1CCCC=C1C
16,3.71,Nc1ccc(B(O)O)cc1
17,5.87,CC(=O)Nc1ccncc1
18,8.7,CC[NH+](CC)CCCC(C)Nc1ccnc2ccc(OC)cc12 (configuration not stated)
19,1.74,Nc1ccc(C=O)cc1
20,9.45,NCCN1CCOCC1
21,3.34,COc1cc2c(OC)ncnc2c(OC)c1OC
22,9.4,CC(N)CCCc1ccc(O)cc1 (configuration not stated)
23,3.16,CC(=O)N=S(C)C
24,6.54,Clc1ccc(C(Cn2ccnc2)OCc2ccc(Sc3ccccc3)cc2)c(Cl)c1 (configuration not stated)

row,pKa,Structure (SMILES)
1,11.3,CCCCNCCCCCCNCCCC
2,8.19,Cc1nc[nH]c1C
3,3.04,CCOC(=O)c1cnc(N)s1
4,4.25,CN(C)c1ccc(Br)cc1
5,8.94,COc1cc(CN)ccc1O
6,5.36,c1ccc2cnccc2c1
7,-2.4,O=C(O)c1ccc[nH+]c1
8,9.15,C=C(C)C(=O)OCCNCC
9,7.02,C=CCN(CC=C)CCOC(=O)C(=C)C
10,7.59,CC(C)NCC[NH2+]C(C)C
11,8.28,CCC(=O)SCCN(C)C
12,10.1,CNCC(=O)[O-]
13,7.07,c1ccc(CNC23OC4C5C6CC(C7C6C4C72)C53)cc1 (configuration not stated)
14,3.58,Cc1cc(Br)ccc1N
15,-2.2,Cc1ccc(S(=O)C(C)(C)C)cc1 (configuration not stated)
16,8.11,SCCNCCc1ccccc1
17,5.78,NC(=O)C([NH3+])Cc1c[nH]cn1 (configuration not stated)
18,8.2,CCCCCCCCN(CCO)CC(C)O (configuration not stated)
19,5.73,NC(=O)CCCCc1ccccn1
20,9.05,CCN(CC)CCNc1cc(C)nc(Nc2ccc(Cl)cc2)n1
21,1.66,Nc1ccc([I+]c2ccccc2)cc1
22,3.83,Cc1cccc(C)c1/C(=N/CCC[NH+](C)C)c1ccccc1
23,6.14,O=C([O-])[C@@H]1CSCN1
24,4.6,CCOCCNc1ccc(C)cc1

row,pKa,Structure (SMILES)
1,2.13,Cn1cc2ccccc2n1
2,-7,CC(O)c1ccccc1 (configuration not stated)
3,6.01,CC1CNCc2ccccc2OCCOc2ccccc2C[NH2+]1 (configuration not stated)
4,8.35,Cc1ccn(C)c2nc3ccccc3c1-2
5,8.26,NCC#CC#CCCC(=O)[O-]
6,4.45,COc1cnccc1C=O
7,5.2,CN(C)O
8,1.08,Cc1cccc(-n2nnnc2N)c1
9,3.95,O=C([O-])C[NH+](CC(=O)[O-])Cc1nc2ccccc2[nH]1
10,11.1,[O-]c1nc([O-])c2[nH]cnc2n1
11,8.92,COc1cc(S(C)(=O)=O)cc(C(=O)N[C@@H]2C[C@H]3CC[C@@H](C2)N3Cc2ccccc2)c1OC
12,5.83,OCCCCc1ccccn1
13,4.87,Cc1ncc2nccnc2n1
14,3.43,Nc1n[nH]c(N)c1/N=N/c1ccccc1
15,4.42,CC(C)c1ccccc1N
16,5.86,Cc1cc2cccc(O)c2nc1C
17,1.26,COc1ccc(-c2cnc(-c3ccc(C)cc3)o2)cc1
18,7.2,NNCCCc1ccccc1
19,8.52,CC[NH+](CC)CCCC(C)Nc1cc(C)nc2cc(Cl)ccc12 (configuration not stated)
20,1.97,O=C(O)c1ccc(/N=C/c2ccccc2)cc1
21,5.6,c1ccc(NC2CCCCC2)cc1
22,4.13,COc1ccc(Cl)c2cccnc12
23,2.68,c1ccc(-c2nc3ncncc3[nH]2)cc1
24,6.5,c1cc(N2CCCCC2)ccc1N1CCCCC1

row,Structure (SMILES),pKa
1,Nc1ccc(-c2ccc([NH3+])cc2)cc1,3.66
2,CCOC(=O)C1CN2CCC1CC2 (configuration not stated),9.64
3,N#CC1CC2CCN1CC2 (configuration not stated),5.85
4,O=C([O-])C1CCN1 (configuration not stated),9.54
5,NNC(=O)c1ccc[nH+]c1,1.64
6,CCCCCNCCCCC,11.2
7,CCCNN,7.92
8,Cc1ccc(C2CN2)cc1 (configuration not stated),6.76
9,CN1C[C@H](CO)C[C@H]2c3cccc4[nH]cc(c34)C[C@@H]21,8.84
10,NNC(=O)c1ccc([NH3+])cc1,2.05
11,CC[C@]1(O)C[C@@H](C)N[C@H]2CCCC[C@@H]21,9.71
12,C1CCC(NC2CCCCO2)OC1 (configuration not stated),8.1
13,c1ccc(C2CN3CCC2CC3)cc1 (configuration not stated),10.2
14,Cc1cc(-c2ccc([NH3+])c(C)c2)ccc1N,3.38
15,CN1CC1,7.86
